# Test results from ChEMBL document CHEMBL1201862, “PubChem BioAssay data set” (2004).
#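 Exposure lasted 48 hours, with cells grown in 96-well plates and compounds tested at five concentrations. The concentration for 50% growth inhibition is given as GI50.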 The source made the active and inactive calls. No stated cut-off is given here; in the data, active = GI50 up to about 1.1 µM and inactive = higher.
# Columns and labels:
# Experiment in all cases: NCI-60 cell line screen, 48 h
# HL-60 = test system: HL-60
# KM12 = test system: KM12
# SN12C = test system: SN12C
# IGROV-1 = test system: IGROV-1
# UACC-257 = test system: UACC-257
# OVCAR-5 = test system: OVCAR-5
# HCT-15 = test system: HCT-15
# HT-29 = test system: HT-29
# SR = test system: SR
# A498 = test system: A498
# ACHN = test system: ACHN
# HCT-116 = test system: HCT-116
# LOX IMVI = test system: LOX IMVI
# OVCAR-4 = test system: OVCAR-4
# PC-3 = test system: PC-3
# SW-620 = test system: SW-620
# EKVX = test system: EKVX
# A549 = test system: A549
# NCI-H23 = test system: NCI-H23
# BT-549 = test system: BT-549
# K562 = test system: K562
# SK-MEL-28 = test system: SK-MEL-28
# M14 = test system: M14
# Hs-578T = test system: Hs-578T
# SF-539 = test system: SF-539
# DU-145 = test system: DU-145
# MDA-MB-435 = test system: MDA-MB-435
# MDA-MB-231 = test system: MDA-MB-231
# MDA-N = test system: MDA-N
# NCI-H226 = test system: NCI-H226
# COLO 205 = test system: COLO 205
# HOP-92 = test system: HOP-92
# RXF 393 = test system: RXF 393
# 786-0 = test system: 786-0
# NCI-H522 = test system: NCI-H522
# OVCAR-3 = test system: OVCAR-3
# SK-MEL-2 = test system: SK-MEL-2
# SNB-75 = test system: SNB-75
# NCI-H460 = test system: NCI-H460
# T47D = test system: T47D
# CCRF-CEM = test system: CCRF-CEM
# Malme-3M = test system: Malme-3M
# UO-31 = test system: UO-31
# MCF7 = test system: MCF7
# TK-10 = test system: TK-10
# U-251 = test system: U-251
# SK-OV-3 = test system: SK-OV-3
# OVCAR-8 = test system: OVCAR-8
# HOP-62 = test system: HOP-62
# SK-MEL-5 = test system: SK-MEL-5
# MOLT-4 = test system: MOLT-4
# SF-295 = test system: SF-295
# RPMI-8226 = test system: RPMI-8226
# CAKI-1 = test system: CAKI-1
# HCC 2998 = test system: HCC 2998
# SF-268 = test system: SF-268
# NCI/ADR-RES = test system: NCI/ADR-RES
# UACC-62 = test system: UACC-62
# SNB-19 = test system: SNB-19
compound,measurement,setting,value
O=C(Cc1ccc(Cl)c(Cl)c1)N(CCc1ccc(Cl)c(Cl)c1)CCN1CCCC1,GI50,HL-60,1.42 µM (inactive)
same,GI50,KM12,1.79 µM (inactive)
same,GI50,SN12C,1.73 µM (inactive)
same,GI50,IGROV-1,1.74 µM (inactive)
same,GI50,UACC-257,1.91 µM (inactive)
same,GI50,OVCAR-5,1.8 µM (inactive)
same,GI50,HCT-15,1.96 µM
same,GI50,HT-29,1.86 µM (inactive)
same,GI50,SR,1.39 µM (inactive)
same,GI50,A498,1.85 µM (inactive)
same,GI50,ACHN,1.71 µM (inactive)
same,GI50,HCT-116,1.66 µM (inactive)
same,GI50,LOX IMVI,1.73 µM (inactive)
same,GI50,OVCAR-4,2.19 µM (inactive)
same,GI50,PC-3,1.83 µM (inactive)
same,GI50,SW-620,1.53 µM (inactive)
same,GI50,EKVX,1.92 µM (inactive)
same,GI50,A549,2.01 µM (inactive)
same,GI50,NCI-H23,1.95 µM (inactive)
same,GI50,BT-549,2.63 µM (inactive)
same,GI50,K562,1.87 µM (inactive)
same,GI50,SK-MEL-28,1.43 µM (inactive)
same,GI50,M14,1.77 µM (inactive)
same,GI50,Hs-578T,2.98 µM (inactive)
same,GI50,SF-539,1.75 µM (inactive)
same,GI50,DU-145,2.14 µM (inactive)
same,GI50,MDA-MB-435,1.77 µM (inactive)
same,GI50,MDA-MB-231,1.76 µM (inactive)
same,GI50,MDA-N,1.67 µM (inactive)
same,GI50,NCI-H226,2.01 µM (inactive)
same,GI50,COLO 205,1.68 µM (inactive)
same,GI50,HOP-92,1.88 µM (inactive)
same,GI50,RXF 393,1.71 µM (inactive)
same,GI50,786-0,1.61 µM (inactive)
same,GI50,NCI-H522,1.77 µM (inactive)
same,GI50,OVCAR-3,2.26 µM (inactive)
same,GI50,SK-MEL-2,1.8 µM (inactive)
same,GI50,SNB-75,2.05 µM (inactive)
same,GI50,NCI-H460,1.85 µM (inactive)
same,GI50,T47D,4.06 µM (inactive)
same,GI50,CCRF-CEM,1.31 µM (inactive)
same,GI50,Malme-3M,1.73 µM (inactive)
same,GI50,UO-31,1.85 µM (inactive)
same,GI50,MCF7,1.73 µM (inactive)
same,GI50,TK-10,1.81 µM (inactive)
same,GI50,U-251,1.71 µM (inactive)
same,GI50,SK-OV-3,2.69 µM (inactive)
same,GI50,OVCAR-8,1.93 µM (inactive)
same,GI50,HOP-62,1.79 µM (inactive)
same,GI50,SK-MEL-5,1.78 µM (inactive)
same,GI50,MOLT-4,1.34 µM (inactive)
same,GI50,SF-295,1.96 µM (inactive)
same,GI50,RPMI-8226,1.71 µM (inactive)
same,GI50,CAKI-1,1.67 µM (inactive)
same,GI50,HCC 2998,1.81 µM (inactive)
same,GI50,SF-268,2.15 µM (inactive)
same,GI50,NCI/ADR-RES,2.04 µM (inactive)
same,GI50,UACC-62,1.78 µM (inactive)
same,GI50,SNB-19,2.15 µM (inactive)
